{"source": "patent US7947257B2", "about": "(Archimedes Development Limited, priority 2003, dated 2011)", "experiment": "Pharmacokinetic performance of intranasal granisetron formulations in sheep (plasma granisetron by HPLC)", "format": "in vivo", "settings": "in words", "procedure": "A group of five female sheep was used, each weighing around 35 kg. The formulations were administered to a randomized cross-over design. […] This dose was provided by administering 0.4 ml of each formulation via a spray device with the dose volume being divided equally between both nostrils.\nBlood samples were collected over a 360 minute period following dosing and plasma separated. […] Pharmacokinetic parameters were calculated from the plasma data."}
{"compound": "CN1C2CCCC1CC(NC(=O)c1nn(C)c3ccccc13)C2", "note": "(stereo not shown) [Granisetron, 1-methyl-N-(9-methyl-9-azabicyclo[3.3.1]non-3-yl)-1H-indazole-3-carboxamide]", "values": [{"measurement": "absorption by the intranasal route", "result": "well absorbed"}]}
